According to ChEMBL document CHEMBL1201862, “PubChem BioAssay data set” (2004):
Calls of active or inactive are those of the source.

Key:
[1] = Trypanosoma cruzi growth suppression in host cells – NIH3T3 host cells, beta-gal luminescence, confirmation (AID 2044); format: functional, cell-based;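 also: intracellular parasites grown in NIH/3T3 mouse fibroblasts as host cells; luminescent beta-galactosidase reporter signal from transgenic T. cruzi replicating inside host cells; inhibitors lower the luminescence signal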
[2] = microbe, parasite or virus in culture; format: functional; details: Mycobacterium tuberculosis
[3] = NIH3T3 cell viability loss – ATP luminescence, mouse fibroblasts, counter-screen, dose response (AID 2010); format: functional, cell-based;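 also: cells exposed to compound for about 90 hours before reading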
[4] = target: T1, Replicative DNA helicase DnaB (Mycobacterium tuberculosis, UniProt P9WMR3); test: DnaB intein splicing inhibitors, dose response, biochemical, cell-free fluorescence (AID 449749); format: functional
T1 sequence (P9WMR3 whole entry): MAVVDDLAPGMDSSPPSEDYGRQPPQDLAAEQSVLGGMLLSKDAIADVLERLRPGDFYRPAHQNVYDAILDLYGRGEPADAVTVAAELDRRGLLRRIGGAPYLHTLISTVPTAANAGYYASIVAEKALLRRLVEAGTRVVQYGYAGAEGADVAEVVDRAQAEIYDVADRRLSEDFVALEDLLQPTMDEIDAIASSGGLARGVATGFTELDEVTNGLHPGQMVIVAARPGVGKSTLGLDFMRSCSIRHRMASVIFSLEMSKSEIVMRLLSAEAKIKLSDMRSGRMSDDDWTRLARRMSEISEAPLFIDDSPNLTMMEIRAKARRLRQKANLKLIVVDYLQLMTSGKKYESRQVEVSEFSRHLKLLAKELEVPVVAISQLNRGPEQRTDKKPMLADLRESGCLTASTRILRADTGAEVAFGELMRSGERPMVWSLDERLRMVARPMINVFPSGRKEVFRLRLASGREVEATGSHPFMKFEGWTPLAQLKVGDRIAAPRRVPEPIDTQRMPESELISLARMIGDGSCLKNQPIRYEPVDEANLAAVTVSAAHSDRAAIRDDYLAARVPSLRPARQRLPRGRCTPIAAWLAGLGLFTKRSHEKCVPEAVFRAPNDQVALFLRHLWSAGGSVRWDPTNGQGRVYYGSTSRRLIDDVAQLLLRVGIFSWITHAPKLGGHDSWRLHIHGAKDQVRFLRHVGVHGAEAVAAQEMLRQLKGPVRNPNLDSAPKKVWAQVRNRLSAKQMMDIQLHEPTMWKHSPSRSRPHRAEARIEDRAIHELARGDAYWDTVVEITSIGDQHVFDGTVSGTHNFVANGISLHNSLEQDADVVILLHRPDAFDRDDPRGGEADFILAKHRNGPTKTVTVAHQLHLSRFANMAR

Protein RecA = target: T2, Protein RecA (Mycobacterium tuberculosis, UniProt P9WHJ3); test: Fluorescence Cell-Free Homogeneous Dose Retest to Identify Inhibitors of RecA-Intein Splicing Activity. [Related pubchem assays (depositor defined):AID2097, AID2223, AID489010, AID492950]; format: functional
T2 sequence (P9WHJ3 whole entry): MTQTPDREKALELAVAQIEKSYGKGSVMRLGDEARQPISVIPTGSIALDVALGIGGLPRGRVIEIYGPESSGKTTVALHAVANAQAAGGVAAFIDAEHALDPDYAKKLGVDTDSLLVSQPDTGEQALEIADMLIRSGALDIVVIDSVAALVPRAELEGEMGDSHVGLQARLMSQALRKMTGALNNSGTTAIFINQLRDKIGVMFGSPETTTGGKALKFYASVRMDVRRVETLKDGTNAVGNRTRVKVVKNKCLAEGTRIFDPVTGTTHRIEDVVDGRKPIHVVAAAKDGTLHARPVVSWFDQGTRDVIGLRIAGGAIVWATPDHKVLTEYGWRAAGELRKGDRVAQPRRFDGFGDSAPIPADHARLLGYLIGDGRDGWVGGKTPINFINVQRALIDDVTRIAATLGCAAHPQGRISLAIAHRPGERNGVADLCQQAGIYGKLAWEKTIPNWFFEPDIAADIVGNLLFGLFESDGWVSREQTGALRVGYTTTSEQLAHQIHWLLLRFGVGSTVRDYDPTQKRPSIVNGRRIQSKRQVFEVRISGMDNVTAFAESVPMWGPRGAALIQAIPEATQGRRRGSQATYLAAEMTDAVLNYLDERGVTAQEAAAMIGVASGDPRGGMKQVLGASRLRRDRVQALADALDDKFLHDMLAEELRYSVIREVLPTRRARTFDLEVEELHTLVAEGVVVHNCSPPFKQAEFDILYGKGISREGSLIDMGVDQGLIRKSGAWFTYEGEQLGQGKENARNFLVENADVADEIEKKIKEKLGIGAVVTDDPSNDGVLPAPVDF

[5] = target: T3, Polyadenylate-binding protein 1 (Homo sapiens, UniProt P11940); test: MLLE binding blockers, Cy5 peptide tracer – biochemical, fluorescence polarization, Cy5-PAM2 peptide, secondary, miRNA deadenylation inhibitor project, dose response (AID 602260); format: functional; details: read-out: IC50_Mean
[6] = target: Mitochondrial peptide methionine sulfoxide reductase (Bos taurus, UniProt P54149); test: Absorbance-based biochemical high throughput dose response assay for activators of Methionine sulfoxide reductase A (MsrA).; format: functional
[7] = target: T3, Polyadenylate-binding protein 1; test: MLLE domain peptide-binding blockers, IC50 – biochemical, fluorescence polarization, FITC-PAM2 peptide, dose response (AID 602259); format: functional; details: read-out: IC50_Mean
[8] = bead-based luminescence quenchers, dual-tagged ARNT – biochemical, AlphaScreen, cherry-pick, artefact control for ARNT-TACC3 interaction inhibitor project, dose response (AID 651705); format: functional;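 also: AlphaScreen bead proximity signal that flags compounds interfering with the detection technology; potency reflects signal decrease which marks the compound as an assay artifact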
[9] = target: Matrix metalloproteinase-14 (Homo sapiens, UniProt P50281); test: Dose Response confirmation of uHTS hits for a small molecule inhibitors of MT1-MMP activation in a fluorescence assay set 1.; format: functional
Caspase-6 = Caspase-6 (Homo sapiens, UniProt P55212); test: inhibition of CASP6 peptide cleavage – biochemical, VEID-R110 fluorescence, cherry-pick, dose response (AID 720632)
[10] = target: E3 ubiquitin-protein ligase UHRF1 (Homo sapiens, UniProt Q96T88); test: Counterscreen for inhibitors of 5-meCpG-binding domain protein 2 (MBD2): TRFRET-based biochemical high throughput dose response assay to identify inhibitors of binding of ubiquitin-like with PHD and ring finger domains 1 (UHRF1) to methylated oligonucleotide.
[11] = target: T4, Tyrosyl-DNA phosphodiesterase 2 (Homo sapiens, UniProt O95551); test: potency against TDP2 phosphodiesterase activity – biochemical, epi absorbance, IC50, dose response (AID 743297)
T4 sequence (O95551 whole entry): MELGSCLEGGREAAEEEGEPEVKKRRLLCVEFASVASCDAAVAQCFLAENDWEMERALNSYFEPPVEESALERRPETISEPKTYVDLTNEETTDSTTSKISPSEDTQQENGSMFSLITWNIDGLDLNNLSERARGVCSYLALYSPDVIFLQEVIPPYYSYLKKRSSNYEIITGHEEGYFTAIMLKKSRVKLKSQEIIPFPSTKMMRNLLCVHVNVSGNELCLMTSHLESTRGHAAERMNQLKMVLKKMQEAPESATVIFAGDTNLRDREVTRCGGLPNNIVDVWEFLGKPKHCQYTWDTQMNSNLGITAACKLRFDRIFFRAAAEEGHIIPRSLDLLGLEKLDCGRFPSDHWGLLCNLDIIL

[12] = target: T5, Endoplasmic reticulum aminopeptidase 1 (Homo sapiens, UniProt Q9NZ08); test: inhibition of human ERAP1 enzyme activity – biochemical, cherry-pick, set 2, plate reader, dose response (AID 743314)
[13] = target: T5, Endoplasmic reticulum aminopeptidase 1; test: blocking ERAP1 cleavage of leucine-AMC substrate – biochemical, fluorescence plate reader, dry powder, dose response (AID 1117292); format: functional
Genome polyprotein = Genome polyprotein (dengue virus type 2, UniProt P29990); test: flavivirus cap methylation enzyme inhibition – biochemical, confirmation dose response, primary screen (AID 588689); format: functional
[14] = target: T6, Rac GTPase-activating protein 1 (Homo sapiens, UniProt Q9H0H5); test: blockers of MgcRacGAP-driven Rac1 GTP hydrolysis – biochemical, ADP Hunter fluorescence, primary and confirmatory, confirmation (AID 624330); format: functional
T6 sequence (Q9H0H5 whole entry): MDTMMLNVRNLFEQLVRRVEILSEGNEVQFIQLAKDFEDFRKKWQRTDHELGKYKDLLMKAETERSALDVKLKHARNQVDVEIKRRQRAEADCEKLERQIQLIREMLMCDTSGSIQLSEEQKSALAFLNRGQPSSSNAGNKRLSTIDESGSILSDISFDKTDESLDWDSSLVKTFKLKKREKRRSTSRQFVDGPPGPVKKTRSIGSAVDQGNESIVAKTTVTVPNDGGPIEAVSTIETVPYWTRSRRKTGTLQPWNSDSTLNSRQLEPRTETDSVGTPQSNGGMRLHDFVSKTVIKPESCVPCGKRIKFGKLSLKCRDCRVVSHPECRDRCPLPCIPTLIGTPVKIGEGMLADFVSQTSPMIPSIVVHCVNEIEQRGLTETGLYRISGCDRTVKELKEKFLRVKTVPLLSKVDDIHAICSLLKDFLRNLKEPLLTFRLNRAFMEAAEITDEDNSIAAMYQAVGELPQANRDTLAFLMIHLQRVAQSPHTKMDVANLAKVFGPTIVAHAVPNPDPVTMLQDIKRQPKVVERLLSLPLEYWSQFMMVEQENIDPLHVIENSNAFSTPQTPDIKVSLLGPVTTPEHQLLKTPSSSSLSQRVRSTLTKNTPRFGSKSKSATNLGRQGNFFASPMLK

[15] = target: 1-phosphatidylinositol 4,5-bisphosphate phosphodiesterase gamma-1 (Homo sapiens, UniProt P19174); test: Counterscreen for inhibitors of phospholipase C isozymes (PLC-B3): Fluorescence-based biochemical high throughput dose response assay to identify inhibitors of phospholipase C isozymes (PLC-gamma1).
[16] = target: 1-phosphatidylinositol 4,5-bisphosphate phosphodiesterase beta-3 (Homo sapiens, UniProt Q01970); test: Fluorescence-based biochemical high throughput dose response assay to identify inhibitors of phospholipase C isozymes (PLC-B3).
[17] = target: Glutathione-S-transferase (Schistosoma japonicum, UniProt Q26513); test: GST-antibody interaction or FRET quenching – biochemical, TR-FRET, artefact control for Vif-APOBEC3G degradation inhibitor project, dose response (AID 1117362); format: functional
Chain of Glutathione-S-transferase (Q26513 whole entry): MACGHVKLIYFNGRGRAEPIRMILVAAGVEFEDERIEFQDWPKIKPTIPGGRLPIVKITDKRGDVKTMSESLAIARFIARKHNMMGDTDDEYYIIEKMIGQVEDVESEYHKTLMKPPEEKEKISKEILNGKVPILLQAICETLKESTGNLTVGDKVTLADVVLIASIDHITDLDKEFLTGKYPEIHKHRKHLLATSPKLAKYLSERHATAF

T5 sequence (Q9NZ08 whole entry): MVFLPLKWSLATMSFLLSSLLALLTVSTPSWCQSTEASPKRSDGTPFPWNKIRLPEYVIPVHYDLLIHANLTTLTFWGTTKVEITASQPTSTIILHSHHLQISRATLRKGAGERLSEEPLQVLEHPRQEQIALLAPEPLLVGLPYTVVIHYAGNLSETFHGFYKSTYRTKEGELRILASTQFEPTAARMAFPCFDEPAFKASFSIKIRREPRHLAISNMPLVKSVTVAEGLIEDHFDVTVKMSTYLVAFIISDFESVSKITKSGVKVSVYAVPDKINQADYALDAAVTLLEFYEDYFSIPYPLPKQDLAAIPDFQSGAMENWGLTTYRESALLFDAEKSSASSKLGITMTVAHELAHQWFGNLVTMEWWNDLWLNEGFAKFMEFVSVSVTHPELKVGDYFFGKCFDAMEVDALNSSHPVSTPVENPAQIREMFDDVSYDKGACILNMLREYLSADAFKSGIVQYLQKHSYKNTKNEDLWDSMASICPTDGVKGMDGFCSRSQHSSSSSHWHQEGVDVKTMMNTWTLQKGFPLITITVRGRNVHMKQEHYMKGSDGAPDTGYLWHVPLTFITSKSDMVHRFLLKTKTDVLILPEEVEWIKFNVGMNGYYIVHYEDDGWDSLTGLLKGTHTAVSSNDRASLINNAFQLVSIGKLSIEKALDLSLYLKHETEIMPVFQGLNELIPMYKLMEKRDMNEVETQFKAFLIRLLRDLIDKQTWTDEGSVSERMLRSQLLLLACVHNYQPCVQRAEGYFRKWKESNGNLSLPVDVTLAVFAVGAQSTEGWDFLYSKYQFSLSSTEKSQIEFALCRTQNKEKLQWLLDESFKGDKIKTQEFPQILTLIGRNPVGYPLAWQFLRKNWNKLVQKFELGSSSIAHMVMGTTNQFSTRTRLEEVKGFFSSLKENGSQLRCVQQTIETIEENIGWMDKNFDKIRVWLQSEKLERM
T3 sequence (P11940 whole entry): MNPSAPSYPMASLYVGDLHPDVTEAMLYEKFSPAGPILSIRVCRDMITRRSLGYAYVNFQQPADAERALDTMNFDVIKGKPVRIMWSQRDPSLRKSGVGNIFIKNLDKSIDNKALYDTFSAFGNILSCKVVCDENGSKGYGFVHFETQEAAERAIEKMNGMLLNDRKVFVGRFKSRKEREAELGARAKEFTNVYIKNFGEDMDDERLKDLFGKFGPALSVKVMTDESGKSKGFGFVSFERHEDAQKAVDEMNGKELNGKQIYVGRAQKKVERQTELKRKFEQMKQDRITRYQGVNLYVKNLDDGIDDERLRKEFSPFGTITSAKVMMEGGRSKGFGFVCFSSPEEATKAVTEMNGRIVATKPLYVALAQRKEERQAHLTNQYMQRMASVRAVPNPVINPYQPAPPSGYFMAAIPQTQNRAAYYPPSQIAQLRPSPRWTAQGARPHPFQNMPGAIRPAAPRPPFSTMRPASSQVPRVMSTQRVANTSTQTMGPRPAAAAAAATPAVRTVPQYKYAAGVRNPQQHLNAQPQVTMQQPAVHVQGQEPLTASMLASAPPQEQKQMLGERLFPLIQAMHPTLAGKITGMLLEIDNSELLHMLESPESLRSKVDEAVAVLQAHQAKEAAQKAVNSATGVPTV
Chain of E3 ubiquitin-protein ligase UHRF1 (Q96T88 whole entry, the tested form may be a part): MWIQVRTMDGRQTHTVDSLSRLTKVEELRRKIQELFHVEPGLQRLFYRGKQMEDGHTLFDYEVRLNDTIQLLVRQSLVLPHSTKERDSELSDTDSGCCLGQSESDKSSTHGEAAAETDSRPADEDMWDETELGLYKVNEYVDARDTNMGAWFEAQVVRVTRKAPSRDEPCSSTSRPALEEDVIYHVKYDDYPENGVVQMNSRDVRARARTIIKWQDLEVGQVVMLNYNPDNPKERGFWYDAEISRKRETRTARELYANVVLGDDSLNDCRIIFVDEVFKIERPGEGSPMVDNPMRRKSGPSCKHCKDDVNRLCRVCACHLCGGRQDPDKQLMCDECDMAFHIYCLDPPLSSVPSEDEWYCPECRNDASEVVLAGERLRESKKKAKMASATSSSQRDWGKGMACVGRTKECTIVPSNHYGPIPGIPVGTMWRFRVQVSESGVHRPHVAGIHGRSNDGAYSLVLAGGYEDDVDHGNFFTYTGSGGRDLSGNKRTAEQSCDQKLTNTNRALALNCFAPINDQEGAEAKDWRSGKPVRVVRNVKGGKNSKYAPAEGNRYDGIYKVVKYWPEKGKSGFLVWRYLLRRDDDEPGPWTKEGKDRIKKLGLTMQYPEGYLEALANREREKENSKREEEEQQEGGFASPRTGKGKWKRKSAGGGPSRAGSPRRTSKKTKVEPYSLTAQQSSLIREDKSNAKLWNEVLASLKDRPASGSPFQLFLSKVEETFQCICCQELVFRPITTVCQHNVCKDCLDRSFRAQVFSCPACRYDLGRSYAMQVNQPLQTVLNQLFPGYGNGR
Chain of Genome polyprotein (P29990 2492-3391 limits assumed): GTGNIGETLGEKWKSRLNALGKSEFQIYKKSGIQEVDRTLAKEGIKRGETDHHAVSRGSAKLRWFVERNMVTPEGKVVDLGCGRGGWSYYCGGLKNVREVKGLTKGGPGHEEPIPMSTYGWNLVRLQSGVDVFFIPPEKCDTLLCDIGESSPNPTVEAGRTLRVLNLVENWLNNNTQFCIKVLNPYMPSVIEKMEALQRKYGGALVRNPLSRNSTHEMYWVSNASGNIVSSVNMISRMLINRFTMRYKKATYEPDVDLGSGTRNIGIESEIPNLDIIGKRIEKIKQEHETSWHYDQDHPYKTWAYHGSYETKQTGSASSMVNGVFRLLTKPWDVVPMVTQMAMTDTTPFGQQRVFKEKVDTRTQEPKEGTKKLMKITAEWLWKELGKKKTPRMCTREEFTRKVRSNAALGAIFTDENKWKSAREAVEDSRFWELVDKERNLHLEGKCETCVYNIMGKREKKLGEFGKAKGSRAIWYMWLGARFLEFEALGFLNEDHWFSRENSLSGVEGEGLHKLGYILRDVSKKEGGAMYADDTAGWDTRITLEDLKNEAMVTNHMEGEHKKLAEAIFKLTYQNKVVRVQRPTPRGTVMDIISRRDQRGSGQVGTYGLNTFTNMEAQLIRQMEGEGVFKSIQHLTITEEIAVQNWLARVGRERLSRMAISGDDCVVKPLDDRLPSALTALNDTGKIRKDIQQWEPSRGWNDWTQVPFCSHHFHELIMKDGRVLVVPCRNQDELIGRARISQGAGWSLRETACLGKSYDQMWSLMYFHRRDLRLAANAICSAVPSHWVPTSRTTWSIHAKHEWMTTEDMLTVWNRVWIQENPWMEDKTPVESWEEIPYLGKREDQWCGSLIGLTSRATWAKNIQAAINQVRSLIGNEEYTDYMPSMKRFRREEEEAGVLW
Chain of 1-phosphatidylinositol 4,5-bisphosphate phosphodiesterase beta-3 (Q01970 whole entry): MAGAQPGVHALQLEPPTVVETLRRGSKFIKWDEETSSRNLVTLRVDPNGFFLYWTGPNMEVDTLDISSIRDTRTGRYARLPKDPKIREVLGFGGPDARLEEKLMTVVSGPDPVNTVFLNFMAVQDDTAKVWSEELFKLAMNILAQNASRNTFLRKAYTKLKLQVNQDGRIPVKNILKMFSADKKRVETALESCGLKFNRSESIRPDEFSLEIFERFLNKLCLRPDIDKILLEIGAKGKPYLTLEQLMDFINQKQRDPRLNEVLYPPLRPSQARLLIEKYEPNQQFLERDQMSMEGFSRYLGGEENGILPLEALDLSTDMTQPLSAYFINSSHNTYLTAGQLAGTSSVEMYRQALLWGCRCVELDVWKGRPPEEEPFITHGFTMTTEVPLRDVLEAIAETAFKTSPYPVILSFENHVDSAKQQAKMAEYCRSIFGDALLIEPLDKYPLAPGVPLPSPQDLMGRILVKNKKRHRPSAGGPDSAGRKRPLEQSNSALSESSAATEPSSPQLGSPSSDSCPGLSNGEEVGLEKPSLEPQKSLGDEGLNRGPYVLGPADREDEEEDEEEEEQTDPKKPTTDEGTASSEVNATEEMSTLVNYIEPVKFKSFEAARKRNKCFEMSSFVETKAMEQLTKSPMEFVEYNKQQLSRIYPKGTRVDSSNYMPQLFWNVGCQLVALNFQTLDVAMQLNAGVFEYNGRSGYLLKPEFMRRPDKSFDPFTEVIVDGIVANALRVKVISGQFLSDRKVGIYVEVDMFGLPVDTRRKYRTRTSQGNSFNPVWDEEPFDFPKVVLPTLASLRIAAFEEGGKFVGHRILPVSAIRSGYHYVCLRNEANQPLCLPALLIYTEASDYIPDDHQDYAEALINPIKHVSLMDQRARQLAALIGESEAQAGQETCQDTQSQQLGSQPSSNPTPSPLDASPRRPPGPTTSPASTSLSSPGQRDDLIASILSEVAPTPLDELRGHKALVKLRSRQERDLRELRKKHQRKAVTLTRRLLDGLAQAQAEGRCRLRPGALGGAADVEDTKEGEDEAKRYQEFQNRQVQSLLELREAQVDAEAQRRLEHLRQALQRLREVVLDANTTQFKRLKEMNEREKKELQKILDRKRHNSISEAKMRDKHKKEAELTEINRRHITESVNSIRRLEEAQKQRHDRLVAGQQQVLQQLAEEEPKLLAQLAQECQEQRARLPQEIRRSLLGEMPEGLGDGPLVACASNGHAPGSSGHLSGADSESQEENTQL
Chain of Mitochondrial peptide methionine sulfoxide reductase (P54149 whole entry, the tested form may be a part): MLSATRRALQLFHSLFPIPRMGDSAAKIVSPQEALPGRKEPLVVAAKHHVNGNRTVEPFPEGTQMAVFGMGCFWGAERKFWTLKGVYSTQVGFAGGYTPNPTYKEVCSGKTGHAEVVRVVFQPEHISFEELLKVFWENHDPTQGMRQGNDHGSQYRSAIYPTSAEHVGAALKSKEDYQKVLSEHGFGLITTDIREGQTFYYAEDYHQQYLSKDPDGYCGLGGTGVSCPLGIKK

In the case of `CNc1ccc2nc3ccccc3[n+](C)c2c1.[O-][Cl+3]([O-])([O-])[O-]`, the EC50 [1] is reported as 0.689 µM (active), the CC50 [2] is reported as 18.3 µM (active) and the EC50 [3] is reported as > 60 µM (not active). For the same compound, the AC50 [4] was > 380 µM (inactive), the EC50 (Protein RecA) was 2.37 µM (active) and the IC50 [5] was 35.1 µM (inactive). For the same compound, the EC50 [6] was 2.13 µM (active), the IC50 [7] was 18 µM (active) and the AC50 [8] was 133 µM (active). For the same compound, the IC50 [9] was 14 µM (active), the AC50 (Caspase-6) was 2.79 µM (active) and the IC50 [10] was > 43.8 µM (inactive). The IC50 [11] was > 128 µM (inactive).

In the case of `N=C(NCCc1c[nH]c2ccccc12)NS(=O)(=O)c1cc(F)ccc1F`, the AC50 [12] is reported as 6.09 µM (active) and the AC50 [13] is reported as 59.9 µM (active).

With `O=C(O)c1cccc2cccc(-c3c4ccc(=O)c(O)c-4oc4c(O)c(O)ccc34)c12` the IC50 (Genome polyprotein) was 14.6 µM (active), the IC50 [14] was 13.3 µM (active) and the IC50 [15] was > 122 µM (inactive). For the same compound, the IC50 [16] was > 122 µM (inactive) and the IC50 [17] was > 100 µM (active).
